Experimental data from ChEMBL document CHEMBL1154454, “Tetrahydronaphthyl azole oxime ethers: the conformationally rigid analogues of oxiconazole as antibacterials” (2009).
≈ marks a conversion by molar mass, not a printed value.

Experiments:
Klebsiella pneumoniae [1] = experiment: microbe, parasite or virus in culture; type: functional; conditions: ATCC 27736, 24 h
Description: (§1) Antimicrobial activity against Klebsiella pneumoniae ATCC 27736 after 24 hrs by standard microbroth dilution assay

Escherichia coli [2] = experiment: microbe, parasite or virus in culture; type: functional; conditions: ATCC 9637, 24 h
Description: (§2) Antimicrobial activity against Escherichia coli ATCC 9637 after 24 hrs by standard microbroth dilution assay

Pseudomonas aeruginosa [3] = experiment: Antimicrobial activity against Pseudomonas aeruginosa ATCC BAA427 after 24 hrs by standard microbroth dilution assay; type: functional
Staphylococcus aureus [4] = experiment: microbe, parasite or virus in culture; type: functional; conditions: ATCC 25923, 24 h
Description: (§3) Antimicrobial activity against Staphylococcus aureus ATCC 25923 after 24 hrs by standard microbroth dilution assay

Candida albicans = experiment: Antimicrobial activity against Candida albicans after 48 hrs by standard microbroth dilution assay; type: functional
Cryptococcus neoformans = experiment: Antimicrobial activity against Cryptococcus neoformans after 72 hrs by standard microbroth dilution assay; type: functional
Sporothrix schenckii = experiment: Antimicrobial activity against Sporothrix schenckii after 72 hrs by standard microbroth dilution assay; type: functional
[5] = tested on: Trichophyton mentagrophytes; experiment: Antimicrobial activity against Trichophyton mentagrophytes after 96 hrs by standard microbroth dilution assay; type: functional
Aspergillus fumigatus = experiment: Antimicrobial activity against Aspergillus fumigatus after 72 hrs by standard microbroth dilution assay; type: functional
Candida parapsilosis = experiment: Antimicrobial activity against Candida parapsilosis after 48 hrs by standard microbroth dilution assay; type: functional; conditions: Lodderomyces parapsilosis
Klebsiella pneumoniae [6] = conditions: ATCC 27736
Description: as §1

Escherichia coli [7] = conditions: ATCC 9637
Description: as §2

Pseudomonas aeruginosa [8] = tested on: Pseudomonas aeruginosa
Staphylococcus aureus [9] = conditions: ATCC 25923
Description: as §3

| Compound | MIC (Klebsiella pneumoniae [1]) [µg/mL] | MIC (Escherichia coli [2]) [µg/mL] | MIC (Pseudomonas aeruginosa [3]) [µg/mL] | MIC (Staphylococcus aureus [4]) [µg/mL] | MIC (Candida albicans) [µg/mL] | MIC (Cryptococcus neoformans) [µg/mL] | MIC (Sporothrix schenckii) [µg/mL] | MIC [5] [µg/mL] | MIC (Aspergillus fumigatus) [µg/mL] | MIC (Candida parapsilosis) [µg/mL] | MIC (Klebsiella pneumoniae [6]) [µg/mL] | MIC (Escherichia coli [7]) [µg/mL] | MIC (Pseudomonas aeruginosa [8]) [µg/mL] | MIC (Staphylococcus aureus [9]) [µg/mL] |
| --- | --- | --- | --- | --- | --- | --- | --- | --- | --- | --- | --- | --- | --- | --- |
| Cc1cccc2c1CCC(Cn1cncn1)/C2=N/OCc1cccc(Cl)c1 (stereo not given) | > 50 | 6.25 (≈ 16.4 µM) | > 50 | 6.25 (≈ 16.4 µM) | > 50 | > 50 | > 50 | > 50 | > 50 | > 50 | – | – | – | – |
| Clc1cccc2c1CCC(Cn1ccnc1)/C2=N/OCc1ccccc1 (stereo not given) | 6.25 (≈ 17.1 µM) | 0.391 (≈ 1.07 µM) | > 50 | 1.56 (≈ 4.27 µM) | > 50 | > 50 | > 50 | > 50 | 25 (≈ 68.3 µM) | > 50 | – | – | – | – |
| Clc1cccc(CO/N=C2/c3cccc(Br)c3CCC2Cn2ccnc2)c1 (stereo not given) | > 50 | > 50 | > 50 | 1.56 (≈ 3.51 µM) | 50 (≈ 112 µM) | > 50 | 50 (≈ 112 µM) | 12.5 (≈ 28.1 µM) | > 50 | > 50 | – | – | – | – |
| Clc1cccc2c1CCC(Cn1ccnc1)/C2=N\OCc1ccccc1 (stereo not given) | > 50 | > 50 | > 50 | 3.12 (≈ 8.54 µM) | 50 (≈ 137 µM) | > 50 | 50 (≈ 137 µM) | 12.5 (≈ 34.2 µM) | > 50 | > 50 | – | – | – | – |
| OC(Cn1cncn1)(Cn1cncn1)c1ccc(F)cc1F [FLUCONAZOLE] | – | – | – | – | 0.5 (≈ 1.63 µM) | 1 (≈ 3.27 µM) | 2 (≈ 6.53 µM) | 1 (≈ 3.27 µM) | 2 (≈ 6.53 µM) | 1 (≈ 3.27 µM) | – | – | – | – |
| Cc1cccc2c1CCC(Cn1cncn1)/C2=N/OCc1ccccc1 (stereo not given) | > 50 | 25 (≈ 72.2 µM) | > 50 | > 50 | > 50 | > 50 | > 50 | > 50 | > 50 | > 50 | – | – | – | – |
| c1ccc(CO/N=C2\c3ccccc3CCC2Cn2ccnc2)cc1 (stereo not given) | 6.25 (≈ 18.9 µM) | 0.781 (≈ 2.36 µM) | > 50 | 6.25 (≈ 18.9 µM) | > 50 | > 50 | > 50 | > 50 | 50 (≈ 151 µM) | > 50 | – | – | – | – |
| c1ccc(CO/N=C2\c3ccccc3CCC2Cn2cncn2)cc1 (stereo not given) | > 50 | 25 (≈ 75.2 µM) | > 50 | > 50 | > 50 | > 50 | > 50 | > 50 | > 50 | > 50 | – | – | – | – |
| Fc1cccc2c1CCC(Cn1cncn1)/C2=N/OCc1ccccc1 (stereo not given) | > 50 | 25 (≈ 71.3 µM) | > 50 | > 50 | > 50 | > 50 | > 50 | > 50 | > 50 | > 50 | – | – | – | – |
| Clc1cccc(CO/N=C2\c3ccccc3CCC2Cn2ccnc2)c1 (stereo not given) | 3.12 (≈ 8.54 µM) | 0.391 (≈ 1.07 µM) | > 50 | 1.56 (≈ 4.27 µM) | > 50 | > 50 | > 50 | > 50 | 25 (≈ 68.3 µM) | > 50 | – | – | – | – |
| GENTAMICIN | – | – | – | – | – | – | – | – | – | – | 0.78 | 0.18 | 25 | 6.25 |
| Brc1cccc2c1CCC(Cn1ccnc1)/C2=N/OCc1ccccc1 (stereo not given) | 3.12 (≈ 7.62 µM) | 0.391 (≈ 0.953 µM) | > 50 | 1.56 (≈ 3.81 µM) | > 50 | > 50 | > 50 | > 50 | 50 (≈ 122 µM) | > 50 | – | – | – | – |
